# Experimental data taken from PubChem BioAssay AID1918954 (Molecular Pharmacology Branch, DTP, NCI, 2023).
# Test system: MDA-MB-468 complex spheroids with HUVEC/MSC, viability
# Test: Anticancer human tumor MDA-MB-468 cell line growth inhibition;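 note: spheroids exposed to agents for seven days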;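 for viability, T/C: 100% = DMSO vehicle control viability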
# Conditions: for IC50: curve of first compound; for viability, T/C: stronger effect = lower value
# Method in brief: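 Multicellular complex spheroids of tumor cells with human endothelial cells (HUVEC) and mesenchymal stem cells; the LSD1 inhibitor iadademstat was combined with standard-of-care or investigational agents. Top concentration at or near clinical Cmax, half-log dilutions; final DMSO ≤0.25%.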
# [1] = second compound 0.1 µM, first compound 0.00949 µM
# [2] = second compound 0.1 µM, first compound 0.03 µM
# [3] = second compound 0.1 µM, first compound 0.0949 µM
# [4] = second compound 0.1 µM, first compound 0.3 µM
# [5] = second compound 0.316 µM, first compound 0.00949 µM
# [6] = second compound 0.316 µM, first compound 0.03 µM
# [7] = second compound 0.316 µM, first compound 0.0949 µM
# [8] = second compound 0.316 µM, first compound 0.3 µM
# [9] = second compound 1 µM, first compound 0.00949 µM
# [10] = second compound 1 µM, first compound 0.03 µM
# [11] = second compound 1 µM, first compound 0.0949 µM
# [12] = second compound 1 µM, first compound 0.3 µM
# [13] = second compound 3.16 µM, first compound 0.00949 µM
# [14] = second compound 3.16 µM, first compound 0.03 µM
# [15] = second compound 3.16 µM, first compound 0.0949 µM
# [16] = second compound 3.16 µM, first compound 0.3 µM
# [17] = second compound 10 µM, first compound 0.00949 µM
# [18] = second compound 10 µM, first compound 0.03 µM
# [19] = second compound 10 µM, first compound 0.0949 µM
# [20] = second compound 10 µM, first compound 0.3 µM
Compound,IC50 (second compound 0.1 µM) [µM],IC50 (second compound 0.316 µM) [µM],IC50 (second compound 1 µM) [µM],IC50 (second compound 3.16 µM) [µM],IC50 (second compound 10 µM) [µM],"viability, T/C [1] [%]","viability, T/C [2] [%]","viability, T/C [3] [%]","viability, T/C [4] [%]","viability, T/C [5] [%]","viability, T/C [6] [%]","viability, T/C [7] [%]","viability, T/C [8] [%]","viability, T/C [9] [%]","viability, T/C [10] [%]","viability, T/C [11] [%]","viability, T/C [12] [%]","viability, T/C [13] [%]","viability, T/C [14] [%]","viability, T/C [15] [%]",other results
CCc1c2c(nc3ccc(O)cc13)-c1cc3c(c(=O)n1C2)COC(=O)[C@]3(O)CC + NC1CCC(NC2CC2c2ccccc2)CC1,< 0.000949,< 0.000949,< 0.000949,< 0.000949,< 0.000949,4.23,3.08,2.21,2.02,3.66,3.28,1.33,2.06,4.78,2.79,1.75,2.02,4.73,3.2,2.84,"viability, T/C (second compound 0.1 µM, first compound 0.000949 µM): 7.86%; viability, T/C (second compound 0.1 µM, first compound 0.003 µM): 7.19%; viability, T/C (second compound 0.316 µM, first compound 0.000949 µM): 6.84%; viability, T/C (second compound 0.316 µM, first compound 0.003 µM): 5.38%; viability, T/C (second compound 1 µM, first compound 0.000949 µM): 6.78%; viability, T/C (second compound 1 µM, first compound 0.003 µM): 6.71%; viability, T/C (second compound 3.16 µM, first compound 0.000949 µM): 7.33%; viability, T/C (second compound 3.16 µM, first compound 0.003 µM): 4.42%; viability, T/C [16]: 1.88%; viability, T/C (second compound 10 µM, first compound 0.000949 µM): 6.82%; viability, T/C (second compound 10 µM, first compound 0.003 µM): 5.98%; viability, T/C [17]: 4.27%; viability, T/C [18]: 3.39%; viability, T/C [19]: 2.46%; viability, T/C [20]: 2.29%"
Nc1ccccc1NC(=O)c1ccc(CNC(=O)OCc2cccnc2)cc1 + NC1CCC(NC2CC2c2ccccc2)CC1,0.17,0.14,0.127,0.143,0.111,97.4,106,87.2,13.9,102,103,67.7,14.6,89.1,90.3,61.2,15.9,80.8,83.7,69.6,"viability, T/C (second compound 0.1 µM, first compound 0.949 µM): 3.13%; viability, T/C (second compound 0.1 µM, first compound 3 µM): 1.48%; viability, T/C (second compound 0.316 µM, first compound 0.949 µM): 3.32%; viability, T/C (second compound 0.316 µM, first compound 3 µM): 0.9%; viability, T/C (second compound 1 µM, first compound 0.949 µM): 2.93%; viability, T/C (second compound 1 µM, first compound 3 µM): 1.42%; viability, T/C [16]: 14.9%; viability, T/C (second compound 3.16 µM, first compound 0.949 µM): 3.07%; viability, T/C (second compound 3.16 µM, first compound 3 µM): 1.04%; viability, T/C [17]: 59.9%; viability, T/C [18]: 61%; viability, T/C [19]: 56%; viability, T/C [20]: 13.4%; viability, T/C (second compound 10 µM, first compound 0.949 µM): 3.05%; viability, T/C (second compound 10 µM, first compound 3 µM): 1.52%"
